# Measurements from patent US20110250266A1, “LIPOSOMAL SYSTEMS COMPRISING SPHINGOMYELIN” (Yissum Research Development Company of the Hebrew …, priority 2008, published 2011).
# “And” between values parts separate entries of the source, which are not always exact repeats. Equal values may be shown once. Where a name gives a salt, the structure may show the parent alone.
# Assays:
# mouse = test: Maximal tolerated dose of free BUP; type: in vivo
# [1] = tested on: Mice (male Swiss-Webster); test: Analgesic efficacy in mouse model (electrical stimulation of abdominal skin, vocalization threshold); type: in vivo; design: key: 1 = analgesia; 0 = no analgesia; 10 = partial analgesia
# Procedure: Testing for analgesia was done by electrical stimulation of the skin directly overlying the abdomen at the site of injection using a current generator (model S48, Grass Instruments).
# Mice (male Swiss-Webster, 26±3 gr) were tested prior to injection to determine the vocalization threshold than were injected with encapsulation BUP liposomes than determine analgesic duration (G. J. Grant et al, pharmaceutical research, vol 18, no. 3, 336-343, 2001).
# In order to evaluate the effect of altering the volume and BUP concentration of the injection, in each group, three mice received 150 μL of the 2% formulation and 3 mice received 300 μL of a 1:1 diluted 2% formulation.
# In these Tables, an numeric score of “1” denotes full analgesia, a numeric score of “0” was given when there was no analgesic effect, and a numeric value of “10” when there was partial analgesia.
# As indicated above, the numerical score to the spreadsheet was introduced for the evaluation of the analgesic effect of various liposome preparations performance in vivo: For each time period (e.g. 4 hrs, 8 hrs etc) a numeric value of 1 was given if the anesthesia was complete; 10 or 0.5 was given when analgesia was partial (incomplete) and 0 for no anesthesia. The mean for each subgroup was calculated separately (i.e. 1% 300 μl, 2% 150 μg).
# [2] = individual mice, Bup conc 0.25%, volume 150 ul, 0.375 mg Bup
# [3] = individual mice, Bup conc 0.25%, volume 150 ul, 0.375 mg Bup, hydrochloride
# [4] = individual mice, Bup conc 0.25%, volume 300 ul, 0.75 mg Bup
# [5] = individual mice, Bup conc 0.25%, volume 300 ul, 0.75 mg Bup, hydrochloride
# [6] = individual mice, Bup conc 0.50%, volume 150 ul, 0.75 mg Bup
# [7] = individual mice, Bup conc 0.50%, volume 150 ul, 0.75 mg Bup, hydrochloride
# [8] = mice, 0.25%, 150 ul, 0.375 mg Bup
# [9] = mice, 0.25%, 150 ul, 0.375 mg Bup, hydrochloride
# [10] = mice, 0.25%, 300 ul, 0.75 mg Bup
# [11] = mice, 0.25%, 300 ul, 0.75 mg Bup, hydrochloride
# [12] = mice, 0.50%, 150 ul, 0.75 mg Bup
# [13] = mice, 0.50%, 150 ul, 0.75 mg Bup, hydrochloride
smiles,measurement,setting,value
"CCCCN1CCCCC1C(=O)Nc1c(C)cccc1C (stereo not drawn) [Standard Bupivacaine, Bupivacaine hydrochloride]","maximal tolerated dose, MTD",mouse,0.75 mg/mouse
same,Analgesic effect score at 15 min,[1]; [2],1
same,Analgesic effect score at 30 min,[1]; [2],1
same,Analgesic effect score at 45 min,[1]; [2],1
same,Analgesic effect score at 60 min,[1]; [3],0 (5×) and 1 (2×) and 10
same,Analgesic effect score at 75 min,[1]; [3],0 (7×) and 10
same,Analgesic effect score at 90 min,[1]; [2],0
same,Analgesic effect score at 15 min,[1]; [4],1
same,Analgesic effect score at 30 min,[1]; [4],1
same,Analgesic effect score at 45 min,[1]; [4],1
same,Analgesic effect score at 60 min,[1]; [4],1
same,Analgesic effect score at 75 min,[1]; [5],0 and 1 (7×)
same,Analgesic effect score at 90 min,[1]; [5],0 and 1 (5×) and 10 (2×)
same,Analgesic effect score at 105 min,[1]; [5],0 (5×) and 10 and 1 (2×)
same,Analgesic effect score at 120 min,"[1]; individual mice, Bup conc 0.25%, volume 300 ul, 0.75 mg Bup, 120 min, hydrochloride",0 (7×) and 10
same,Analgesic effect score at 135 min,"[1]; individual mice, Bup conc 0.25%, volume 300 ul, 0.75 mg Bup, 135 min",0
same,Analgesic effect score at 15 min,[1]; [6],1
same,Analgesic effect score at 30 min,[1]; [6],1
same,Analgesic effect score at 45 min,[1]; [6],1
same,Analgesic effect score at 60 min,[1]; [7],1 (7×) and 10
same,Analgesic effect score at 75 min,[1]; [7],1 (6×) and 0 and 10
same,Analgesic effect score at 90 min,[1]; [7],0 (4×) and 10 (2×) and 1 (2×)
same,Analgesic effect score at 105 min,[1]; [6],0
same,analgesia 15 min,[1]; [8],1
same,analgesia 30 min,[1]; [8],1
same,analgesia 45 min,[1]; [8],1
same,analgesia 60 min,[1]; [9],0 and 1 and 10
same,analgesia 75 min,[1]; [9],0 and 10
same,analgesia 90 min,[1]; [8],0
same,analgesia 15 min,[1]; [10],1
same,analgesia 30 min,[1]; [10],1
same,analgesia 45 min,[1]; [10],1
same,analgesia 60 min,[1]; [10],1
same,analgesia 75 min,[1]; [11],0 and 1
same,analgesia 90 min,[1]; [11],0 and 1 and 10
same,analgesia 105 min,[1]; [11],0 and 10 and 1
same,analgesia 120 min,"[1]; mice, 0.25%, 300 ul, 0.75 mg Bup, 120 min, hydrochloride",0 and 10
same,analgesia 135 min,"[1]; mice, 0.25%, 300 ul, 0.75 mg Bup, 135 min",0
same,analgesia 15 min,[1]; [12],1
same,analgesia 30 min,[1]; [12],1
same,analgesia 45 min,[1]; [12],1
same,analgesia 60 min,[1]; [13],1 and 10
same,analgesia 75 min,[1]; [13],1 and 0 and 10
same,analgesia 90 min,[1]; [13],0 and 10 and 1
same,analgesia 105 min,[1]; [12],0
